The values below come from PubChem BioAssay (NCI).

Structures are written as SMILES.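 Assay format: 96-well plates, 48-hour exposure. TGI denotes the concentration required for complete inhibition of growth.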 A value given as a limit tells only on which side of the number the result lay.

Test systems include NCI-H460 lung; SNB-19 CNS; UO-31 renal; CCRF-CEM leukemia; SNB-75 CNS; SF-539 CNS; SK-MEL-2 melanoma; HT29 colon; EKVX NSCLC; NCI-H23 lung; NCI-H522 lung; A498 renal; IGROV1 ovarian; MOLT-4 leukemia; LOX IMVI melanoma; K-562 leukemia; U251 CNS; M14 melanoma; SF-295 CNS; HCT-15 colon.
Holding throughout (assay): NCI anticancer screen, dose series, 48 h

Regarding `C=CCn1c(=O)ccn(COCCO)c1=O`, the TGI with NCI-H460 lung, in the experiment on SNB-19 CNS, in the experiment with UO-31 renal, with CCRF-CEM leukemia, with SNB-75 CNS and with SF-539 CNS was above 100 µM throughout. In addition, the TGI in the experiment on SK-MEL-2 melanoma, with HT29 colon, with EKVX NSCLC, in the experiment with NCI-H23 lung, in the experiment with NCI-H522 lung and with A498 renal was above 100 µM throughout. In addition, the TGI in the experiment on IGROV1 ovarian, in the experiment with MOLT-4 leukemia, in the experiment with LOX IMVI melanoma, with K-562 leukemia, in the experiment with U251 CNS and in the experiment with M14 melanoma was above 100 µM each time.

`O=C(N=Nc1cc(Cl)ccc1Cl)NNc1cc(Cl)ccc1Cl`: the TGI with SF-295 CNS was above 100 µM; in the experiment on NCI-H460 lung, 44.5 µM; with UO-31 renal, 29 µM; with CCRF-CEM leukemia it was 49.8 µM; in the experiment on SNB-75 CNS, 57.5 µM; in the experiment on SK-MEL-2 melanoma, 51.5 µM. The TGI with HT29 colon came out at 37 µM; in the experiment on NCI-H23 lung, 53.1 µM; in the experiment with NCI-H522 lung it was 29.9 µM; with A498 renal, 82.3 µM; with IGROV1 ovarian, 57.3 µM; in the experiment with K-562 leukemia, 54.6 µM. The TGI in the experiment on U251 CNS came to 31.3 µM; with M14 melanoma, 32.5 µM; in the experiment with HCT-15 colon it was 64.4 µM.

On to `O=S(=O)(O)c1cc2ccc1/C=C\c1ccc(cc1S(=O)(=O)O)N=Nc1ccc(c(S(=O)(=O)O)c1)/C=C\c1ccc(cc1S(=O)(=O)O)N=N2`, for which the TGI in the experiment on SF-295 CNS, in the experiment on NCI-H460 lung, in the experiment on SNB-19 CNS, with UO-31 renal, with CCRF-CEM leukemia and in the experiment on SNB-75 CNS was above 100 µM throughout. Moreover, the TGI with SF-539 CNS, with SK-MEL-2 melanoma, with HT29 colon, with EKVX NSCLC, in the experiment with NCI-H23 lung and in the experiment with NCI-H522 lung was above 100 µM each time. The TGI with A498 renal, in the experiment on IGROV1 ovarian, in the experiment on MOLT-4 leukemia, in the experiment with LOX IMVI melanoma, with K-562 leukemia and in the experiment with U251 CNS was above 100 µM each time. Besides, the TGI with HCT-15 colon is above 100 µM.

With `O=c1ccc2cc3ccc4cccc5ccc(c2o1)c3c45`, the TGI is above 100 µM in the experiment on SF-295 CNS; above 100 µM in the experiment on NCI-H460 lung; above 100 µM with SNB-19 CNS; 44.9 µM in the experiment on UO-31 renal; above 100 µM with CCRF-CEM leukemia; 50 µM with SNB-75 CNS. In addition, the TGI in the experiment on SF-539 CNS is 21.9 µM; with SK-MEL-2 melanoma it was above 100 µM; with HT29 colon, above 100 µM; in the experiment on EKVX NSCLC it was above 100 µM; in the experiment with NCI-H23 lung, above 100 µM; in the experiment with NCI-H522 lung, above 100 µM. Also, the TGI is 44.9 µM with A498 renal; above 100 µM with IGROV1 ovarian; above 100 µM in the experiment on MOLT-4 leukemia; 55.6 µM in the experiment on LOX IMVI melanoma; above 100 µM in the experiment with K-562 leukemia; 31.1 µM with U251 CNS. Besides, the TGI in the experiment on M14 melanoma and in the experiment with HCT-15 colon was above 100 µM each time.

In the case of `COc1ccc2nc3cc(Cl)ccc3c(NCCCNCCCNc3c4ccc(Cl)cc4nc4ccc(OC)cc34)c2c1`, the TGI amounted to 0.183 µM with SF-295 CNS; 0.0131 µM with NCI-H460 lung; 0.314 µM in the experiment on SNB-19 CNS; 0.989 µM with UO-31 renal; 14.8 µM in the experiment with CCRF-CEM leukemia; 0.23 µM in the experiment on SNB-75 CNS. Further, the TGI in the experiment with SF-539 CNS stood at 0.192 µM; with SK-MEL-2 melanoma it was 0.15 µM; in the experiment on HT29 colon, 0.231 µM; in the experiment with EKVX NSCLC, 0.89 µM; in the experiment with NCI-H23 lung, 0.144 µM; with NCI-H522 lung, 0.114 µM. The TGI was 0.463 µM with A498 renal; above 100 µM with MOLT-4 leukemia; 0.0145 µM in the experiment with LOX IMVI melanoma; 15.2 µM in the experiment with K-562 leukemia; 0.13 µM in the experiment on U251 CNS; 0.157 µM with M14 melanoma. Moreover, the TGI in the experiment on HCT-15 colon was determined as 1.06 µM.

In the case of `COc1nc(C#CCC(C)O)nc(OC)n1` (centres undefined), the TGI was above 100 µM with SF-295 CNS; above 100 µM in the experiment with NCI-H460 lung; above 100 µM in the experiment with SNB-19 CNS; 37.8 µM in the experiment on UO-31 renal; 64 µM in the experiment with SNB-75 CNS; 59.2 µM in the experiment on SF-539 CNS. For the same compound, the TGI with SK-MEL-2 melanoma was 87.3 µM; in the experiment on HT29 colon, above 100 µM; with EKVX NSCLC it was 39.3 µM; with NCI-H23 lung, 43.4 µM; in the experiment on NCI-H522 lung, 34 µM; in the experiment with A498 renal it was 77.1 µM. Further, the TGI with IGROV1 ovarian is 42.3 µM; in the experiment with MOLT-4 leukemia it was above 100 µM; with LOX IMVI melanoma, 40.6 µM; with K-562 leukemia it was above 100 µM; in the experiment with U251 CNS, 76.9 µM; in the experiment on M14 melanoma, 39.6 µM. This compound also gave a TGI in the experiment on HCT-15 colon of 45.6 µM.

With `CCOC(=O)/C=C(\C)c1ccc(C)cc1C`, the TGI with SF-295 CNS, in the experiment with NCI-H460 lung, in the experiment on SNB-19 CNS, with UO-31 renal, with CCRF-CEM leukemia and in the experiment with SNB-75 CNS was above 100 µM in each case. Also, the TGI in the experiment on SF-539 CNS, with SK-MEL-2 melanoma, with HT29 colon, with EKVX NSCLC, in the experiment with NCI-H23 lung and in the experiment with A498 renal was above 100 µM each time. In addition, the TGI in the experiment with IGROV1 ovarian is above 100 µM; in the experiment on MOLT-4 leukemia it was above 100 µM; in the experiment with LOX IMVI melanoma, 31.3 µM; in the experiment with K-562 leukemia it was above 100 µM; in the experiment with U251 CNS, above 100 µM; in the experiment with M14 melanoma, above 100 µM. This compound also showed a TGI in the experiment with HCT-15 colon of 88.6 µM.
